Data set [1] deals with mouse. To be noted: cited from earlier work.
The target in data set [2] is T1, m-calpain (Rattus norvegicus, UniProt Q07009).
T1 construct: m-calpain which was extracted and purified from rat brain; from tissue; host or cells: rat brain
T1 sequence (Q07009 20-700 limits assumed): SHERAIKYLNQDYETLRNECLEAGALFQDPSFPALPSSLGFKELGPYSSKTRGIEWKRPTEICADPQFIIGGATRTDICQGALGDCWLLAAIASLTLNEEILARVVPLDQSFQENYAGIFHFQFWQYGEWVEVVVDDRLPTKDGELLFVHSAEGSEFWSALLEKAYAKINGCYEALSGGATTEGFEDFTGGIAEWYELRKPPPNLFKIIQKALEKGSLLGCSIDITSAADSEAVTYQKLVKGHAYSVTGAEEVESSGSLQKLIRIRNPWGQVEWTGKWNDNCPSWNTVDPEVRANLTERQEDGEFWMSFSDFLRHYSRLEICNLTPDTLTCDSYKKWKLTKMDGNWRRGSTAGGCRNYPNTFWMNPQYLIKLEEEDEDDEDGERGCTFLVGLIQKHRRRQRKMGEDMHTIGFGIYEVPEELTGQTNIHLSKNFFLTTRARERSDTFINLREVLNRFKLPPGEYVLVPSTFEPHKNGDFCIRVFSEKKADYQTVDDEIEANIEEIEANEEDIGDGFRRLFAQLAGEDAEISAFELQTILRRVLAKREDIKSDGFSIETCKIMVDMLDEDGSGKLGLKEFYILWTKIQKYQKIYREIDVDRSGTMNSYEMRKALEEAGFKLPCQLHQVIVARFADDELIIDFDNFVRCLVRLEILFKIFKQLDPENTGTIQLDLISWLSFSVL
T1 sequence (Q64537 1-270 partner): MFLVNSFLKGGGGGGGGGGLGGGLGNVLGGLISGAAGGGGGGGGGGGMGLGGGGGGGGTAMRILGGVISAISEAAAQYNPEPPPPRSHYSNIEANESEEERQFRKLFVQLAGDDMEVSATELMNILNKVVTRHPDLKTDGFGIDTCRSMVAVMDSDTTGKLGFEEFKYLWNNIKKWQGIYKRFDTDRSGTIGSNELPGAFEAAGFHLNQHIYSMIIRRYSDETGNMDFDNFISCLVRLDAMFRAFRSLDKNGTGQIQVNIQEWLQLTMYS
As to the kind of experiment: calpain inhibitory activity. In kind it is biochemical. Conditions: m-calpain extracted and purified from rat brain; read-out: calpain inhibitory activity IC₅₀. As to the method:
According to the method previously described (Journal of Biological Chemistry, 259, 12489 (1984)), inhibitory activity of several compounds were determined with m-calpain which was extracted and purified from rat brain by means of the method described in Journal of Biological Chemistry, 259, 3210 (1984). The results are summarized in the following table in which the data for NCO-700 (Arzneimittel Forschung/Drug Research 36, 190 (1986)) and for MDL 28170 (Biochemical and Biophysical Research Communications, 157, 1117 (1988)) are those disclosed in the references.

The target in data set [3] is T2, calpain I (Homo sapiens, UniProt P07384).
T2 construct: endogenous in cells; host or cells: human erythrocyte
T2 sequence (P07384 1-714): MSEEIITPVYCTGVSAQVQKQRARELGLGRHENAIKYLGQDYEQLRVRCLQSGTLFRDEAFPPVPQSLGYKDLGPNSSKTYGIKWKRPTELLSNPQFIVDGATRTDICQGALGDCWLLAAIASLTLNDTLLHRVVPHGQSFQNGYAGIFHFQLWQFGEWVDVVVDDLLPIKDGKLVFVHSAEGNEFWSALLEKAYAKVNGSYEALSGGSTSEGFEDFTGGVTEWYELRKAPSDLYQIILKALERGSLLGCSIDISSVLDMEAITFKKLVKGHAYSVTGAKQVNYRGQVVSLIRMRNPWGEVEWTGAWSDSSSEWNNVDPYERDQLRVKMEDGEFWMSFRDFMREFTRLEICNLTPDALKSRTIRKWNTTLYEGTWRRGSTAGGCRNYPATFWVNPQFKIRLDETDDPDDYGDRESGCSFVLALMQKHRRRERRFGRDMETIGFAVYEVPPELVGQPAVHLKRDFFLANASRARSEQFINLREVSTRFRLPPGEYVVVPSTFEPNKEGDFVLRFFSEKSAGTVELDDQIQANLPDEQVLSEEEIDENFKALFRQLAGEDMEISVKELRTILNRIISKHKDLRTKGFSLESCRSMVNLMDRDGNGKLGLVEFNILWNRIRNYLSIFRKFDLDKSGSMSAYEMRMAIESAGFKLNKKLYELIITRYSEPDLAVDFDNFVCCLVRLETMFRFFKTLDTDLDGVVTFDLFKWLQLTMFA
T2 sequence (P04632 1-268 partner): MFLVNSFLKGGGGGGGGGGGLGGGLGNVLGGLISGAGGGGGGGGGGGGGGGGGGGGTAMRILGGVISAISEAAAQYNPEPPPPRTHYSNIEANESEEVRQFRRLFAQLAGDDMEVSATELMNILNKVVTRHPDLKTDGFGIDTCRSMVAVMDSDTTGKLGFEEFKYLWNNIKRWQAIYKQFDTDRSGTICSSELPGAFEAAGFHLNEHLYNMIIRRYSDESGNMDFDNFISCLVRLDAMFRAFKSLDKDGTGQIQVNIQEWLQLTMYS
Nature of the data set: conversion of 80KDa calpain I to 76KDa form in erythrocyte incubated with calcium. In kind it is cell-based. Conditions: human erythrocyte incubated in the presence of calcium. From the text:
Calpain I is partially purified from post-mortem brain. Fraction containing crude calpain I is subjected to electrophoresis, and reacted with monoclonal antibody to human calpain I (Biochemical Journal, 246, 481 (1987); Biochemical Journal, 261, 1039 (1989)) to show three bands. Molecular weights of these bands are 80KDa, 78KDa, and 76KDa, respectively, and are identical to those in erythrocyte (Biochemical Journal, 246, 482 (1987); Biochemical Journal, 261, 1039 (1989)). When human erythrocyte is incubated in the presence of calcium, the 80KDa band disappears and the 76KDa band appears. This reaction is inhibited by leupeptine which is a calpain inhibitor. Furthermore, there exists a good correlation between the amount of the 76KDa protein and the enzyme activity. […] This transformation from 80KDa to 76KDa in the presence of calcium can also be observed with slice specimens of post-mortem human brain.

The target of data set [4] is calpain. To be noted: cited from earlier work.

Where two headings read alike, the source gives them in different places. Residues, ends and D or L forms follow the SMILES beside them. *: point of attachment. Cbz = O=C(OCc1ccccc1)*

Turning to `CC(C)CCNC(=O)[C@H](CC(C)C)NC(=O)[C@H]1O[C@@H]1C(=O)O` [E-64-c], in data set [1] (po), the LD₅₀ is above 2000 mg/kg.
Take `CCCCC(C=O)NC(=O)C(CC(C)C)NC(=O)OCc1ccccc1` (centres unmarked) [carpeptine]: the IC50 in data set [2] turned out to be 46 nM.
With `CCOC(=O)[C@H]1O[C@@H]1C(=O)N[C@@H](CC(C)C)C(=O)NCCC(C)C` [E-64-d], the LD₅₀ in data set [1] (po) is above 2000 mg/kg.
For `CC(=O)NC(CC(C)C)C(=O)NC(CC(C)C)C(=O)NC(C=O)CCCNC(=N)N` (centres unmarked) [leupeptine], in data set [2], the IC50 turned out to be 360 nM. Besides, the “disappearance of 80KDa band and appearance of 76KDa band of calpain I” value in data set [3] was “inhibited”.
Turning to `CC(C)[C@H](NC(=O)OCc1ccccc1)C(=O)N[C@H](C=O)Cc1ccccc1` [MDL 28170] (Cbz-Val-Phe-aldehyde), the inhibition constant Ki (in general, a dissociation constant, usually derived from enzyme kinetics or from competition with a known ligand) in data set [4] (value disclosed in Biochemical and Biophysical Research Communications, 157, 1117 (1988), read-out: calpain inhibitory activity Ki) was 7 nM.
As for `CCOC(=O)[C@@H]1O[C@H]1C(=O)NC(CC(C)C)C(=O)N1CCN(Cc2ccc(OC)c(OC)c2OC)CC1.CCOC(=O)[C@@H]1O[C@H]1C(=O)NC(CC(C)C)C(=O)N1CCN(Cc2ccc(OC)c(OC)c2OC)CC1.O=S(=O)(O)O` (some centres unmarked) [NCO-700], in data set [4] (value disclosed in Arzneimittel Forschung/Drug Research 36, 190 (1986), read-out: calpain inhibitory activity IC₅₀), the IC50 was 46000 nM. Further, the LD₅₀ in data set [1] (iv) is 374 mg/kg.
Regarding `CC(C)CC(NC(=O)[C@H]1O[C@@H]1C(=O)O)C(=O)NCCCCNC(=N)N` (some centres unmarked) [E-64], the IC50 in data set [2] was found to be 960 nM. In addition, the LD₅₀ in data set [1] (po) is on record as above 2000 mg/kg.
Turning to `NC(N)=NCCCCNC(=O)[C@H](Cc1ccccc1)NC(=O)C1OC1C(=O)O` (some centres unmarked) [estatine A], the LD₅₀ in data set [1] (ip) is reported as above 400 mg/kg.

The values are drawn from patent EP0580161A1, “Prophylactic and therapeutic treatment of Alzheimer's disease” (THE McLEAN HOSPITAL CORPORATION, priority 1992, dated 1994).
